The text below walks through data of patent US20210244743A1 (priority 2020, published 2021).

One data set deals with SARS-CoV-2. The data set can be described thus: SARS-CoV-2 viral transcript levels by quantitative real-time PCR in Vero E6 cells. The conditions noted are these: for EC50: Severe acute respiratory syndrome coronavirus 2, Vero C1008, Vero E6 cells, compound added 3 hours after virus (100 TCID50), assayed 48 hours later, read-out: EC50, viral transcript copy number. Type of data set: cell-based.

The subject of the next data set is MERS. The data set can be described thus: microbe, parasite or virus in culture. Type of data set: cell-based, MERS-CoV. The conditions noted are these: Middle East respiratory syndrome-related coronavirus, Vero, read-out: average EC50 (50% virus inhibitory concentration).
A further data set is described as follows: in vitro. The conditions noted are these: African green monkey.
The next data set relates to SARS. The data set can be described thus: microbe, parasite or virus in culture. Type of data set: cell-based, SARS-CoV. The conditions noted are these: Severe acute respiratory syndrome coronavirus, Vero, read-out: average EC50 (50% virus inhibitory concentration).

Consider `Cc1cccc(/C=N/Nc2cc(N3CCOCC3)nc(OCCc3ccccn3)n2)c1` [apilimod dimesylate], for which, in the data set on SARS-CoV-2 (SARS-CoV-2, Vero E6 cells), the “selectivity index (CC50/EC50)” value is reported as 9.1. Besides, the EC50 in the data set on SARS-CoV-2 worked out at 2.2 µM; with MERS it was 13.8 µM; in the data set with SARS, 3.7 µM. Besides, in “in vitro”, the CC50 came out at 20 µM.
On to `CCC(CC)COC(=O)[C@H](C)N[P@](=O)(OC[C@H]1O[C@@](C#N)(c2ccc3c(N)ncnn23)[C@H](O)[C@@H]1O)Oc1ccccc1` [remdesivir], for which the EC50 with SARS-CoV-2 came to 0.7 µM. The molecule further came in with a CC50 in “in vitro” of 205 µM.
